{"source": "patent US8513266B2", "about": "“Methods of treating cancer using pyridopyrimidinone inhibitors of PI3K alpha” (priority 2007, dated 2013)", "assay_type_in_all_cases": "in vivo", "key": {"[1]": {"system": "MCF7 human mammary adenocarcinoma cells", "assay": "MCF7 breast cancer xenograft model", "settings": "MCF7 tumors at end of study, 30 mg/kg qd each agent, alone or combined", "protocol": "(§1) Female and male athymic nude mice (NCr) 5-8 weeks of age and weighing approximately 20-25 g were used in the following model. Prior to initiation of a study, the animals were allowed to acclimate for a minimum of 48 h. During these studies, animals were provided food and water ad libitum and housed in a room conditioned at 70-75° F. and 60% relative humidity. A 12 h light and 12 h dark cycle was maintained with automatic timers. All animals were examined daily for compound-induced or tumor-related deaths.\nMCF7 human mammary adenocarcinoma cells were cultured in vitro in DMEM (Cellgro) supplemented with 10% Fetal Bovine Serum (Cellgro), Penicillin-Streptomycin and non-essential amino acids at 37° C. in a humidified 5% CO2 atmosphere. […] A transponder was implanted into each mouse for identification and data tracking, and animals were monitored daily for clinical symptoms and survival. During the dosing period, the tumor weight of each animal was determined twice weekly and the body weight of each animal was measured daily. […]\nFor subcutaneous or intradermal tumors, the mean tumor weight of each animal in the respective control and treatment groups was determined twice weekly during the study. Tumor weight (TW) was determined by measuring perpendicular diameters with a caliper, using the following formula: tumor weight (mg)=[tumor volume=length (mm)×width^2 (mm^2)]/2 […]"}, "[2]": {"system": "A549 human lung carcinoma cells", "assay": "A549 non-small cell lung cancer xenograft model", "settings": "Compound A 30 mg/kg qd", "protocol": "as §1\nA549 human lung carcinoma cells were cultured in vitro in DMEM (Mediatech) supplemented with 10% Fetal Bovine Serum (Hyclone), PenicilliN-Streptomycin and non-essential amino acids at 37° C. in a humidified 5% CO2 atmosphere. […] A transponder was implanted in each mouse for identification, and animals were monitored daily for clinical symptoms and survival. Body weights were recorded daily. […]\n(§2) For subcutaneous or intradermal tumors, the mean tumor weight of each animal in the respective control and treatment groups was determined twice weekly during the study. Tumor weight (TW) was determined by measuring perpendicular diameters with a caliper, using the following formula: tumor weight (mg)=[tumor volume=length (mm)×width^2 (mm^2)]/2\n(§3) Percent inhibition of tumor growth (TGI) is determined with the following formula: […]"}, "[3]": {"system": "Calu-6 human lung anaplastic carcinoma cells", "assay": "Calu-6 non-small cell lung cancer xenograft model", "settings": "Calu-6 xenograft, single agents; Compound A 100 mg/kg q2d or 30 mg/kg bid oral; carboplatin 50 mg/kg i.v. q4d", "protocol": "as §1\nCalu-6 human lung anaplastic carcinoma cells were cultured in vitro in DMEM (Mediatech) supplemented with 10% Fetal Bovine Serum (Hyclone), Penicillin-Streptomycin and non-essential amino acids at 37° C. in a humidified, 5% CO2 atmosphere. […] A transponder was implanted in each mouse for identification, and animals were monitored daily for clinical symptoms and survival. Body weights were recorded daily. […]\nas §2, §3"}, "[4]": {"system": "MDA-MB-468 human breast adenocarcinoma cells", "settings": "MDA-MB-468 xenograft; erlotinib 100 mg/kg qd oral; Compound A 100 mg/kg q2d oral; combination of the two", "protocol": "Female and male athymic nude mice (NCr) 5-8 weeks of age and weighing approximately 20-25 g were used in the following model. Prior to initiation of a study, the animals were allowed to acclimate for a minimum of 48 h. During these studies, animals were provided food and water ad libitum and housed in a room conditioned at 70-75° F. and 60% relative humidity. A 12 h light and 12 h dark cycle was maintained with automatic timers. All animals were examined daily for compound-induced or tumor-related deaths. […]\nas §2\nPercent inhibition of tumor growth (TGI) is determined with the following formula:\n[formula] • where X0=average TW of all tumors on group day • Xf=TW of treated group on Day f • Yf=TW of vehicle control group on Day f If tumors regress below their starting sizes, then the percent tumor regression is determined with the following formula:\n[formula] Tumor size is calculated individually for each tumor to obtain a mean±SEM value for each experimental group. […]"}, "[5]": {"system": "PC-3 human prostate adenocarcinoma cells", "protocol": "as §1\nPC-3 human prostate adenocarcinoma cells were cultured in vitro in DMEM (Mediatech) supplemented with 20% Fetal Bovine Serum (Hyclone), Penicillin-Streptomycin and non-essential amino acids at 37° C. in a humidified 5% CO2 atmosphere. […] A transponder was implanted in each mouse for identification, and animals were monitored daily for clinical symptoms and survival. Body weights were recorded daily. […]\nas §2, §3"}}, "data": [{"smiles": "COc1cc2c(Nc3ccc(Cl)c(Cl)c3F)ncnc2cc1OC[C@@H]1C[C@@H]2CN(C)C[C@@H]2C1", "note": "[Compound B, N-(3,4-dichloro-2-fluorophenyl)-7-({[(3aR,5r,6aS)-2-methyloctahydrocyclopenta-[c]pyrrol-5-yl]methyl}oxy)-6-(methyloxy)quinazolin-4-amine]", "values": [{"measurement": "induction of TUNEL-positive (apoptotic) cells", "setting": "[1]; compared to vehicle control", "result": "did not result in a significant induction"}, {"measurement": "decrease in CD31-positive tumor vessels (microvessel density, MVD)", "setting": "[1]", "result": 31, "unit": "%"}, {"measurement": "tumor growth inhibition (TGI) (FIG. 4a)", "setting": "[2]; Compound B 30 mg/kg qd oral for 18 days, combination: Compound B followed by Compound A after about six hours", "result": 80, "unit": "%"}, {"measurement": "dose skipping", "setting": "[2]; Compound B 30 mg/kg qd, alone or co-administered", "result": "no dose omission"}]}, {"smiles": "N.N.O=C([O-])C1(C(=O)[O-])CCC1.[Pt+2]", "note": "[carboplatin]", "values": [{"measurement": "tumor growth inhibition (FIG. 3)", "setting": "[3]", "result": "Significant tumor growth inhibition"}]}, {"smiles": "C#Cc1cccc(Nc2ncnc3cc(OCCOC)c(OCCOC)cc23)c1", "note": "[erlotinib]", "values": [{"measurement": "tumor growth inhibition (FIG. 5)", "setting": "[4]", "result": "significant but incomplete tumor growth inhibition"}]}, {"smiles": "CO[C@H]1C[C@@H]2CC[C@@H](C)[C@@](O)(O2)C(=O)C(=O)N2CCCC[C@H]2C(=O)O[C@H]([C@H](C)C[C@@H]2CC[C@@H](O)[C@H](OC)C2)CC(=O)[C@H](C)/C=C(\\C)[C@@H](O)[C@@H](OC)C(=O)[C@H](C)C[C@H](C)/C=C/C=C/C=C/1C", "note": "[rapamycin, Rapamycin]", "values": [{"measurement": "decrease in the fraction of proliferating cells (Ki67) (FIG. 6)", "setting": "[5]; PC-3 tumors resected at end of efficacy study, Compound A 100 mg/kg q2d, rapamycin, monotherapy or combined", "result": 77, "unit": "%"}]}, {"smiles": "CC(=O)O[C@H]1C(=O)[C@@]2(C)[C@H]([C@H](OC(=O)c3ccccc3)[C@]3(O)C[C@H](OC(=O)[C@H](O)[C@@H](NC(=O)c4ccccc4)c4ccccc4)C(C)=C1C3(C)C)[C@]1(OC(C)=O)CO[C@@H]1C[C@@H]2O", "note": "[taxol, Paclitaxel]", "values": [{"measurement": "tumor growth inhibition (FIG. 1)", "setting": "[5]; PC-3 xenograft, Compound A 100 mg/kg q2d or 30 mg/kg bid oral, taxol 7.5 mg/kg i.v. twice weekly, combination of either dose of Compound A with taxol", "result": "Comparable tumor growth inhibition"}]}]}
